Like-named read-outs stand apart in the source and are kept apart here.
Legend:
HIV-1 (strain IIIB) = test: Antiviral activity assay in MT4 cells (propidium iodide based); assay type: cell-based; settings: wild type HIV-1 virus, MT4 cells, read-out: Wildtype virus - IC50
Method: Antiviral Activity Assay in MT4 Cells
(§1) Aliquots of the test compounds were serially diluted in medium (RPMI 1640, 10% fetal calf serum (FCS), and gentamycin) in 96-well plates (Costar 3598) using a Cetus Pro/Pette. Exponentially growing MT4 cells were harvested and centrifuged at 1000 rpm for 10 min in a Jouan centrifuge (model CR 4 12). Cell pellets were resuspended in fresh medium (RPMI 1640, 20% FCS, 20% IL-2, and gentamycin) to a density of 5×10^5 cells/ml. Cell aliquots were infected by the addition of HIV-1 (strain IIIB) diluted to give a viral multiplicity of infection of 100×TCID50. A similar cell aliquot was diluted with medium to provide a mock-infected control. Cell infection was allowed to proceed for 1 hr at 37° in a tissue culture incubator with humidified 5% CO2 atmosphere. After the 1 hr incubation the virus/cell suspensions were diluted 6-fold with fresh medium, and 125 μl of the cell suspension was added to each well of the plate containing pre-diluted compound. Plates were then placed in a tissue culture incubator with humidified 5% CO2 for 5 days. At the end of the incubation period, 27 μl of 5% Nonidet-40 was added to each well of the incubation plate. After thorough mixing with a Costar multitip pipetter, 60 μl of the mixture was transferred to filter-bottomed 96-well plates. The plates were analyzed in an automated assay instrument (Screen Machine, Idexx Laboratories). The assay makes use of a propidium iodide dye to estimate the DNA content of each well.
The anti-viral potency in MT-4 cells of the compounds set forth in Tables 1 and 2 was determined using the above technique.

[1] = tested on: D545701-14 multi protease inhibitor resistant virus; test: Anti-viral activity against resistant virus D545701-14 in MT4 cells; assay type: cell-based, HIV-1
Method: as §1, with “Exponentially” for “Aliquots of the test compounds were serially diluted in medium (RPMI 1640, 10% fetal calf serum (FCS), and gentamycin) in 96-well plates (Costar 3598) using a Cetus Pro/Pette. Exponentially”, “Cell pellets were resuspended in fresh medium (RPMI 1640, 20% FCS, 20% IL-2, and gentamycin) to a density of 5×10^5 cells/ml.” left out, “A similar cell aliquot was diluted with medium to provide a mock-infected control.” left out
(§2) Anti-Viral Activity Against Resistant Viruses
EP13 and DS45701, two multi protease inhibitor resistant viruses were used to assess potency against mutant viruses. These viruses contain the following mutations relative to the consensus sequence of wild type virus: […]

[2] = tested on: EP13 multi protease inhibitor resistant virus; test: Anti-viral activity against resistant virus EP13 in MT4 cells; assay type: cell-based, HIV-1
Method: as §1, with “Exponentially” for “Aliquots of the test compounds were serially diluted in medium (RPMI 1640, 10% fetal calf serum (FCS), and gentamycin) in 96-well plates (Costar 3598) using a Cetus Pro/Pette. Exponentially”, “Cell pellets were resuspended in fresh medium (RPMI 1640, 20% FCS, 20% IL-2, and gentamycin) to a density of 5×10^5 cells/ml.” left out, “A similar cell aliquot was diluted with medium to provide a mock-infected control.” left out
as §2
EP13 and DS45701, two multi protease inhibitor resistant viruses were used to assess potency against mutant viruses. These viruses contain the following mutations relative to the consensus sequence of wild type virus:
EP13: Protease amino acid sequence: M46I, L63P, A71V, V82F/L, I84V; No reverse transcriptase mutations.

[3] = Human immunodeficiency virus 1, IIIB
[4] = Human immunodeficiency virus 1, MT4, read-out: EP13 mutant IC50, EP13 multi protease inhibitor resistant virus, MT4 cells
[5] = Human immunodeficiency virus 1, MT4, read-out: Reference data for protease inhibitors (D545701-14), D545701-14 mutant virus
[6] = Human immunodeficiency virus 1, MT4, read-out: Reference data for protease inhibitors (EP13), EP13 mutant virus
[7] = D545701-14 multi protease inhibitor resistant virus, MT4 cells, read-out: D545701-14 mutant - IC50

SMILES | IC50 (HIV-1 (strain IIIB)) [nM] | IC50 [1, 7] [nM] | other results
CC(C)CN(C[C@@H](O)[C@H](Cc1ccc(OCCCNc2ncccn2)cc1)NC(=O)OC1CO[C@H]2OCC[C@@H]12)S(=O)(=O)c1ccc2c(c1)OCO2 (stereo in doubt) [Compound 271, (3R,3aS,6aR)-hexahydrofuro[2,3-b]furan-3-yl (1S,2R)-3-[(1,3-benzodioxol-5-ylsulfonyl)(isobutyl)amino]-2-hydroxy-1-{4-[3-(2-pyrimidinylamino)propoxy]benzyl}propylcarbamate] | – | – | IC50 (HIV-1 (strain IIIB); [3]): 1 to 10 nM; IC50 ([1]; Human immunodeficiency virus 1, MT4, read-out: D545701-14 mutant - IC50, D545701-14 multi protease inhibitor resistant virus, MT4 cells): 1 to 10 nM; IC50 [2, 4]: 1 to 10 nM
CC(C)CN(C[C@@H](O)[C@H](Cc1ccccc1)NC(=O)O[C@H]1CCOC1)S(=O)(=O)c1ccc(N)cc1 [Amprenavir, reference compound] | – | – | IC50 [1, 5]: > 1000 nM; IC50 [2, 6]: 600 nM
CC(C)CN(C[C@@H](O)[C@H](Cc1ccc(OCc2ccoc2)cc1)NC(=O)O[C@H]1CO[C@H]2OCC[C@H]21)S(=O)(=O)c1ccc2c(c1)OCO2 [Compound 210] | 1 to 10 | 10 to 100 | –
CC(C)CN(C[C@@H](O)[C@H](Cc1ccc(OCCc2ccccn2)cc1)NC(=O)O[C@H]1CO[C@H]2OCC[C@H]21)S(=O)(=O)c1ccc2c(c1)OCO2 [Compound 212] | 1 to 10 | 10 to 100 | –
CC(C)CN(C[C@@H](O)[C@H](Cc1ccc(OCCCNC(=O)c2ccccc2)cc1)NC(=O)O[C@H]1CO[C@H]2OCC[C@H]21)S(=O)(=O)c1ccc2c(c1)OCO2 [Compound 233] | 1 to 10 | 10 to 100 | –
CC(C)CN(C[C@@H](O)[C@H](Cc1ccc(OS(=O)(=O)c2ccc([N+](=O)[O-])cc2)cc1)NC(=O)O[C@@H]1CO[C@H]2OCC[C@H]21)S(=O)(=O)c1ccc([N+](=O)[O-])cc1 [Compound 297, 4-((2S,3R)-2-({[(3S,3aS,6aR)-hexahydrofuro[2,3-b]furan-3-yloxy]carbonyl}amino)-3-hydroxy-4-{isobutyl[(4-nitrophenyl)sulfonyl]amino}butyl)phenyl 4-nitrobenzenesulfonate] | – | – | IC50 (HIV-1 (strain IIIB); [3]): 10 to 100 nM; IC50 [2, 4]: 10 to 100 nM
CC(C)CN(C[C@@H](O)[C@H](Cc1ccc(OCCCc2ccccc2)cc1)NC(=O)O[C@H]1CO[C@H]2OCC[C@H]21)S(=O)(=O)c1ccc2c(c1)OCO2 [Compound 353, (3R,3aS,6aR)hexahydrofuro[2,3-b]furan-3-yl (1S,2R)-3-[(1,3-benzodioxol-5-ylsulfonyl)(isobutyl)amino]-2-hydroxy-1-[4-([3-phenylpropyl]oxy)benzyl]propylcarbamate] | – | – | IC50 ([1]; read-out: D545701-14 mutant - IC50, D545701-14 multi protease inhibitor resistant virus, MT4 cells): 1 to 10 nM; IC50 ([2]; read-out: EP13 mutant IC50, EP13 multi protease inhibitor resistant virus, MT4 cells): < 1 nM
CNC(=O)OCCCC(C)(C)CN(C[C@@H](O)[C@H](Cc1ccc(OCc2ccccc2)cc1)NC(=O)OC1CCOC1)S(=O)(=O)c1ccc2c(c1)OCO2 (some centres unmarked) [Compound 362] | – | – | IC50 (HIV-1 (strain IIIB); [3]): 10 to 100 nM
CNC(=O)OCCCC(C)(C)CN(C[C@@H](O)[C@H](Cc1ccc(OCc2ccccc2)cc1)NC(=O)OC1COCOC1)S(=O)(=O)c1ccc2c(c1)OCO2 [Compound 363, 1,3-Dioxan-5-yl N-((1S,2R)-1-[(4-benzyloxy)benzyl-3-[2,2-dimethyl-5-(N′-methylcarbamoyloxy)-pentyl][(3,4-methylenedioxyphenyl)sulfonyl]amino-2-hydroxypropyl) carbamate] | – | – | IC50 (HIV-1 (strain IIIB); [3]): 10 to 100 nM
CSc1ccc(COc2ccc(C[C@H](NC(=O)O[C@H]3CO[C@H]4OCC[C@H]43)[C@H](O)CN(CC(C)C)S(=O)(=O)c3ccc4c(c3)OCO4)cc2)cc1 [Compound 369] | – | – | IC50 (HIV-1 (strain IIIB); [3]): 1 to 10 nM
CC(C)CN(C[C@@H](O)[C@H](Cc1ccc(OCc2ccc(F)cc2)cc1)NC(=O)O[C@H]1CO[C@H]2OCC[C@H]21)S(=O)(=O)c1ccc2c(c1)OCO2 [Compound 371] | 10 to 100 | – | IC50 ([2]; EP13 multi protease inhibitor resistant virus, MT4 cells, read-out: EP13 mutant IC50): 1 to 10 nM
CC(C)CN(C[C@@H](O)[C@H](Cc1ccc(OCc2ccc(C(F)(F)F)cc2)cc1)NC(=O)O[C@H]1CO[C@H]2OCC[C@H]21)S(=O)(=O)c1ccc2c(c1)OCO2 [Compound 372] | 1 to 10 | 10 to 100 | –
CC(C)CN(C[C@@H](O)[C@H](Cc1ccc(OCc2cccc(C(F)(F)F)c2)cc1)NC(=O)O[C@H]1CO[C@H]2OCC[C@H]21)S(=O)(=O)c1ccc2c(c1)OCO2 [Compound 373] | 1 to 10 | 10 to 100 | –
CC(C)CN(C[C@@H](O)[C@H](Cc1ccc(OCc2ccc(-c3csnn3)cc2)cc1)NC(=O)O[C@H]1CO[C@H]2OCC[C@H]21)S(=O)(=O)c1ccc2c(c1)OCO2 [Compound 374] | 1 to 10 | – | –
CC(C)CN(C[C@@H](O)[C@H](Cc1ccc(OCc2noc(-c3ccccc3)n2)cc1)NC(=O)O[C@H]1CO[C@H]2OCC[C@H]21)S(=O)(=O)c1ccc2c(c1)OCO2 [Compound 375] | 1 to 10 | 10 to 100 | –
CC(C)CN(C[C@@H](O)[C@H](Cc1ccc(OCc2ccc([N+](=O)[O-])cc2)cc1)NC(=O)O[C@H]1CO[C@H]2OCC[C@H]21)S(=O)(=O)c1ccc2c(c1)OCO2 [Compound 383, (3R,3aS,6aR)-hexahydrofuro[2,3-b]furan-3-yl (1S,2R)-3-[(1,3-benzodioxol-5-ylsulfonyl)(isobutyl)amino]-2-hydroxy 1-{4-[(4-nitrobenzyl)oxy]benzyl}propylcarbamate] | 1 to 10 | – | –
COc1ccccc1-c1nc(COc2ccc(C[C@H](NC(=O)O[C@H]3CO[C@H]4OCC[C@H]43)[C@H](O)CN(CC(C)C)S(=O)(=O)c3ccc4c(c3)OCO4)cc2)no1 [Compound 390, (3R,3aS,6aR)-hexahydrofuro[2,3-b]furan-3-yl (1S,2R)-3-[(1,3-benzodioxol-5-ylsulfonyl)(isobutyl)amino]-2-hydroxy-1-(4-{[5-(2-methoxyphenyl)-1,2,4-oxadiazol-3-yl]methoxy}benzyl) propylcarbamate] | 1 to 10 | 10 to 100 | –
CC(C)CN(C[C@@H](O)[C@H](Cc1ccc(OCc2nccn2Cc2ccccc2)cc1)NC(=O)O[C@H]1CO[C@H]2OCC[C@H]21)S(=O)(=O)c1ccc2c(c1)OCO2 [Compound 394] | 1 to 10 | – | –
N#Cc1cccc(COc2ccc(C[C@H](NC(=O)O[C@H]3CO[C@H]4OCC[C@H]43)[C@H](O)CN(CC3CCCC3)S(=O)(=O)c3ccc4c(c3)OCO4)cc2)c1 [Compound 396, (3R,3aS,6aR)-hexahydrofuro[2,3-b]furan-3-yl (1S,2R)-3-[(1,3-benzodioxol-5-ylsulfonyl)(cyclopentylmethyl)amino-]-1-{4-[(3-cyanobenzyl)oxy]benzyl}-2-hydroxypropylcarbamate] | 1 to 10 | – | –
CC(C)(C)NC(=O)[C@@H]1CN(Cc2cccnc2)CCN1C[C@@H](O)C[C@@H](Cc1ccccc1)C(=O)N[C@H]1c2ccccc2C[C@H]1O [Indinavir, reference compound] | – | – | IC50 [1, 5]: 700 nM; IC50 [2, 6]: 560 nM
Cc1c(O)cccc1C(=O)N[C@@H](CSc1ccccc1)[C@H](O)CN1C[C@H]2CCCC[C@H]2C[C@H]1C(=O)NC(C)(C)C [Nelfinavir, reference compound] | – | – | IC50 [1, 5]: 690 nM
CC(C)c1nc(CN(C)C(=O)N[C@H](C(=O)N[C@@H](Cc2ccccc2)C[C@H](O)[C@H](Cc2ccccc2)NC(=O)OCc2cncs2)C(C)C)cs1 [Ritonavir, reference compound] | – | – | IC50 [1, 5]: > 10000 nM; IC50 [2, 6]: > 600 nM
CC(C)(C)NC(=O)[C@@H]1C[C@@H]2CCCC[C@@H]2CN1C[C@@H](O)[C@H](Cc1ccccc1)NC(=O)[C@H](CC(N)=O)NC(=O)c1ccc2ccccc2n1 [Saguinavir, reference compound] | – | – | IC50 ([1]; D545701-14 mutant virus, read-out: Reference data for protease inhibitors (D545701-14)): 900 nM

Source: US8455497B2, “Inhibitors of aspartyl protease” (Vertex Pharmaceuticals Incorporated, priority 1999, dated 2013)
